Common to all, as to experiment: coupled NADH oxidation at […] nm
Holding throughout (type): biochemical

One assay has as its target T1, KduD (Lacticaseibacillus rhamnosus, UniProt A0A0E3CKR8).
T1 construct: recombinant, expressed in E. coli, purified to homogeneity; encoded in GAG genetic cluster
T1 sequence (A0A0E3CKR8 23-274): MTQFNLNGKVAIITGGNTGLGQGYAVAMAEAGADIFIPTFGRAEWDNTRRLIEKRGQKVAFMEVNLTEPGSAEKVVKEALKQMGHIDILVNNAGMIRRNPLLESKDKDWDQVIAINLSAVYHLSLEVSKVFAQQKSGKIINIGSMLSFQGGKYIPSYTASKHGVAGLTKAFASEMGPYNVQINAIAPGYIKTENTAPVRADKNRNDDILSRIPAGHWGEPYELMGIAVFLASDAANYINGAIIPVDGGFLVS
To be noted: DK-II formed in situ from DHU by KduI or DhuI.

A further assay concerns the target T2, DhuD (Streptococcus agalactiae, UniProt Q8E370).
T2 construct: gene gbs1891; purified protein
T2 sequence (Q8E370 1-270): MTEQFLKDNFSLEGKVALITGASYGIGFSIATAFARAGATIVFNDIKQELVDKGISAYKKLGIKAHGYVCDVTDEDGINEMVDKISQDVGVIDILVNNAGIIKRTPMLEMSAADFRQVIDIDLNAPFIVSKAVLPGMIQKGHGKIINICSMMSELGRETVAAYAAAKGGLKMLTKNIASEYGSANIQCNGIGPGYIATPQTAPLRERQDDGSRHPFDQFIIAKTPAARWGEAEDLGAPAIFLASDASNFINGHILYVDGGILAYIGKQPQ
As to conditions: reference reductase, DK-II formed in situ from DHU by DhuI or KduI.

The next assay addresses T3, DhuI (Streptococcus agalactiae, UniProt Q8DXE6).
T3 construct: gene SAG1905; purified protein
T3 sequence (Q8DXE6 1-212): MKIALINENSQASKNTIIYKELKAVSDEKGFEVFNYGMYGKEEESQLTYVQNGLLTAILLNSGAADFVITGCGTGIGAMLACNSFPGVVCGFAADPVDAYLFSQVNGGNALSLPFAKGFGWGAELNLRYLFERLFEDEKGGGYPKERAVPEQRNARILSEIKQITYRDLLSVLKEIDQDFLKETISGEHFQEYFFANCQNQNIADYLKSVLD
As to conditions: reference isomerase, coupled with reductase DhuD or KduD; DHU prepared with UGL.

The target of another assay is T4, KduI (Lacticaseibacillus rhamnosus, UniProt C2JUP1).
T4 construct: recombinant, expressed in E. coli, purified to homogeneity; encoded in GAG genetic cluster
T4 sequence (C2JUP1 1-281): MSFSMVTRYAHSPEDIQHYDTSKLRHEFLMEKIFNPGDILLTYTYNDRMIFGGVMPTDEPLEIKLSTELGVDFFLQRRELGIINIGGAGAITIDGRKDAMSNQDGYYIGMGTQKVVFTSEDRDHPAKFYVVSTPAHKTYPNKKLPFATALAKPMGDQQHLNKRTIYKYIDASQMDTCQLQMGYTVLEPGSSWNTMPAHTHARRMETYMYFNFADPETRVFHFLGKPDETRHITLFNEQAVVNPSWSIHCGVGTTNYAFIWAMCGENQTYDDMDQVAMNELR
To be noted: isomerase coupled with reductase DhuD or KduD; DHU prepared from unsaturated chondroitin disaccharide (6-sulfate) with UGL.

For `NC(=O)C1=CN([C@@H]2O[C@H](COP(=O)(O)OP(=O)(O)OC[C@H]3O[C@@H](n4cnc5c(N)ncnc54)[C@H](O)[C@@H]3O)[C@@H](O)[C@H]2O)C=CC1` [NADH], the “coupled NADH oxidation at 340 nm” value on KduD is on record as “further reduced to KDG by NADH-dependent reductase KduD”.

`O=C(O)C(=O)C[C@H](O)C(=O)CO` [DK-II, 3-deoxy-d-glycero-2,5-hexodiulosonic acid]: the “coupled NADH oxidation at 340 nm” value at DhuD was “successive reaction of isomerase (DhuI or KduI) and reductase (DhuD or KduD)”; at KduD, “DK-II, which is further reduced to KDG by NADH-dependent reductase KduD”. `O=C[C@H](O)[C@@H](O)CC(=O)C(=O)O` [DHU, 4-deoxy-l-threo-5-hexosulose-uronic acid]: the “coupled NADH oxidation at 340 nm” value at DhuI was “successive reaction of isomerase (DhuI or KduI) and reductase (DhuD or KduD)”; at KduI, “KduI catalyses the isomerase reaction from DHU to DK-II”.
